We go through 24 molecules from patent publication US20040180902A1, “3-Substituted quinoline-4-carboxamide derivatives as nk-3 and nk-2 receptor antagonists” (priority 2001, published 2004).

`C[C@H](NC(=O)c1c(CN2CCN(C[C@H](O)CO)C(=O)C2)c(-c2cccs2)nc2ccccc12)C1CCCCC1` [Example 23, 3-[4-((S)-2,3-Dihydroxy-propyl)-3-oxo-piperazin-1-ylmethyl]-2-thiophen-2-yl-quinoline-4-carboxylic acid ((S)-1-cyclohexyl-ethyl)-amide] showed a melting point of 115 to 117 °C. In the case of `C[C@H](NC(=O)c1c(CN2CCN(CCCO)C(=O)C2)c(-c2ccccc2)nc2ccccc12)C1CCCCC1` [Example 14, 3-[4-(3-Hydroxy-propyl)-3-oxo-piperazin-1-ylmethyl]-2-phenyl-quinoline-4-carboxylic acid ((S)-1-cyclohexyl-ethyl)-amide], the melting point is 120 to 122 °C.

On to `C[C@H](NC(=O)c1c(CN2CCN(C[C@@H](O)CO)C(=O)C2)c(-c2ccccc2)nc2ccccc12)C1CCCCC1` [Example 5, (R) 3-[4-(2,3-Dihydroxy-propyl)-3-oxo-piperazin-1-ylmethyl]-2-phenyl-quinoline-4-carboxylic acid ((S)-1-cyclohexyl-ethyl)-amide], for which the melting point lay in the range of 133 to 135 °C. To `C[C@H](NC(=O)c1c(CN2CCNCC2=O)c(-c2ccccc2)nc2ccc(F)cc12)C1CCCCC1` [Example 15, 6-Fluoro-3-(2-oxo-piperazin-1-ylmethyl)-2-phenyl-quinoline-4-carboxylic acid ((S)-1-cyclohexyl-ethyl)-amide] belongs 240 to 242 °C; to `C[C@H](NC(=O)c1c(CN2CCN(C[C@H](O)CO)CC2)c(-c2ccccc2)nc2ccccc12)C1CCCCC1` [Example 19, 3-[4-((S)-2,3-Dihydroxy-propyl)-piperazin-1-ylmethyl]-2-phenyl-quinoline-4-carboxylic acid ((S)-1-cyclohexyl-ethyl)-amide], 124 to 126 °C; to `C[C@H](NC(=O)c1c(CN2CCN(CCOCCO)CC2)c(-c2ccccc2)nc2ccc(F)cc12)C1CCCCC1` [Example 8, 6-Fluoro-3-{4-[2-(2-hydroxy-ethoxy)-ethyl]-piperazin-1-ylmethyl}-2-phenyl-quinoline-4-carboxylic acid ((S)-1-cyclohexyl-ethyl)-amide], 142 to 144 °C.

Molecule `C[C@H](NC(=O)c1c(CN2CCN(CCO)CC2)c(-c2ccccc2)nc2ccc(F)cc12)C1CCCCC1` [Example 10, 6-Fluoro-3-[4-(2-hydroxy-ethyl)-piperazin-1-ylmethyl]-2-phenyl-quinoline-4-carboxylic acid ((S)-1-cyclohexyl-ethyl)-amide] gave a melting point of 114 to 116 °C. For `C[C@H](NC(=O)c1c(CN2CCN(CCO)C(=O)C2)c(-c2cccs2)nc2ccccc12)C1CCCCC1` [Example 1, 3-[4-(2-Hydroxy-ethyl)-3-oxo-piperazin-1-ylmethyl]-2-thiophen-2-yl-quinoline-4-carboxylic acid ((S)-1-cyclohexyl-ethyl)-amide], the melting point lay within 212 to 215 °C. The molecule `C[C@H](NC(=O)c1c(CN2CCN(CCO)CC2)c(-c2cccs2)nc2ccccc12)C1CCCCC1` [Example 12, 3-[4-(2-Hydroxy-ethyl)-piperazin-1-ylmethyl]-2-thiophen-2-yl-quinoline-4-carboxylic acid ((S)-1-cyclohexyl-ethyl)-amide] returned a melting point of 110 °C. `C[C@H](NC(=O)c1c(CN2CCN(C(=O)NCCO)CC2)c(-c2ccccc2)nc2ccccc12)C1CCCCC1` [Example 25, 3-[4-(2-Hydroxy-ethylcarbamoyl)-piperazin-1-ylmethyl]-2-phenyl-quinoline-4-carboxylic acid ((S)-1-cyclohexyl-ethyl)-amide] returned a melting point of 155 to 157 °C. The same measure for `C[C@H](NC(=O)c1c(CN2CCN(CCCO)CC2)c(-c2ccccc2)nc2ccccc12)C1CCCCC1` [Example 13, 3-[4-(3-Hydroxy-propyl)-piperazin-1-ylmethyl]-2-phenyl-quinoline-4-carboxylic acid ((S)-1-cyclohexyl-ethyl)-amide]: 168 to 170 °C.

The molecule `C[C@H](NC(=O)c1c(CN2CCN(CCOCCO)CC2)c(-c2cccs2)nc2ccccc12)C1CCCCC1` [Example 11, 3-{4-[2-(2-Hydroxy-ethoxy)-ethyl]-piperazin-1-ylmethyl}-2-thiophen-2-yl-quinoline-4-carboxylic acid ((S)-1-cyclohexyl-ethyl)-amide] registered a melting point of 182 to 188 °C. The same measure for `C[C@H](NC(=O)c1c(CN2CCN(C[C@H](O)CO)C(=O)C2)c(-c2ccccc2)nc2ccccc12)C1CCCCC1` [Example 4, (S) 3-[4-(2,3-Dihydroxy-propyl)-3-oxo-piperazin-1-ylmethyl]-2-phenyl-quinoline-4-carboxylic acid ((S)-1-cyclohexyl-ethyl)-amide]: 125 to 127 °C; for `C[C@H](NC(=O)c1c(CN2CCN(CCCO)C(=O)C2)c(-c2cccs2)nc2ccccc12)C1CCCCC1` [Example 18, 3-[4-(3-Hydroxy-propyl)-3-oxo-piperazin-1-ylmethyl]-2-thiophen-2-yl-quinoline-4-carboxylic acid ((S)-1-cyclohexyl-ethyl)-amide]: 117 to 119 °C.

`C[C@H](NC(=O)c1c(CN2CCN(CCOCCO)C(=O)C2)c(-c2ccccc2)nc2ccc(F)cc12)C1CCCCC1` [Example 3, 6-Fluoro-3-{4-[2-(2-hydroxy-ethoxy)-ethyl]-3-oxo-piperazin-1-ylmethyl}-2-phenyl-quinoline-4-carboxylic acid ((S)-1-cyclohexyl-ethyl)-amide] came in with a melting point of 110 to 112 °C. To `C[C@H](NC(=O)c1c(CN2CCN(CCOCCO)C(=O)C2)c(-c2ccccc2)nc2ccccc12)C1CCCCC1` [Example 16, 3-{4-[2-(2-Hydroxy-ethoxy)-ethyl]-3-oxo-piperazin-1-ylmethyl}-2-phenyl-quinoline-4-carboxylic acid ((S)-1-cyclohexyl-ethyl)-amide] belongs 125 to 128 °C; to `CC(NC(=O)c1c(CN2CCN(C[C@H](O)CO)C(=O)C2)c(-c2ccccc2)nc2ccc(F)cc12)C1CCCCC1` (stereo partly drawn) [Example 21, 3-[4-((S)-2,3-Dihydroxy-propyl)-3-oxo-piperazin-1-ylmethyl]-6-fluoro-2-phenyl-quinoline-4-carboxylic acid (1-cyclohexyl-ethyl)-amide], 190 to 192 °C; to `C[C@H](NC(=O)c1c(CN2CCN(CCCO)CC2)c(-c2ccccc2)nc2ccc(F)cc12)C1CCCCC1` [Example 9, 6-Fluoro-3-[4-(3-hydroxy-propyl)-piperazin-1-ylmethyl]-2-phenyl-quinoline-4-carboxylic acid ((S)-1-cyclohexyl-ethyl)-amide], 182 to 184 °C.

As to `C[C@H](NC(=O)c1c(CN2CCNC(=O)C2)c(-c2ccccc2)nc2cc(F)c(F)cc12)C1CCCCC1` [Example 2, 6,7-Difluoro-3-(3-oxo-piperazin-1-ylmethyl)-2-phenyl-quinoline-4-carboxylic acid ((S)-1-cyclohexyl-ethyl)-amide], the melting point was 185 to 190 °C. To `C[C@H](NC(=O)c1c(CN2CCN(C[C@@H](O)CO)CC2)c(-c2ccccc2)nc2ccccc12)C1CCCCC1` [Example 20, 3-[4-((R)-2,3-Dihydroxy-propyl)-piperazin-1-ylmethyl]-2-phenyl-quinoline-4-carboxylic acid ((S)-1-cyclohexyl-ethyl)-amide] belongs 126 to 128 °C; to `C[C@H](NC(=O)c1c(CN2CCN(CCO)C(=O)C2)c(-c2ccccc2)nc2ccc(F)cc12)C1CCCCC1` [Example 7, 6-Fluoro-3-[4-(2-hydroxy-ethyl)-3-oxo-piperazin-1-ylmethyl]-2-phenyl-quinoline-4-carboxylic acid ((S)-1-cyclohexyl-ethyl)-amide], 120 to 122 °C; to `C[C@H](NC(=O)c1c(CN2CCN(CCOCCO)C(=O)C2)c(-c2cccs2)nc2ccccc12)C1CCCCC1` [Example 17, 3-{4-[2-(2-Hydroxy-ethoxy)-ethyl]-3-oxo-piperazin-1-ylmethyl}-2-thiophen-2-yl-quinoline-4-carboxylic acid ((S)-1-cyclohexyl-ethyl)-amide], 102 to 104 °C. The same measure for `C[C@H](NC(=O)c1c(CN2CCN(C[C@@H](O)CO)C(=O)C2)c(-c2ccccc2)nc2ccc(F)cc12)C1CCCCC1` [Example 22, 3-[4-((R)-2,3-Dihydroxy-propyl)-3-oxo-piperazin-1-ylmethyl]-6-fluoro-2-phenyl-quinoline-4-carboxylic acid ((S)-1-cyclohexyl-ethyl)-amide]: 143 to 145 °C. Consider `C[C@H](NC(=O)c1c(CN2CCN(CCCO)C(=O)C2)c(-c2ccccc2)nc2ccc(F)cc12)C1CCCCC1` [Example 6, 6-Fluoro-3-[4-(3-hydroxy-propyl)-3-oxo-piperazin-1-ylmethyl]-2-phenyl-quinoline-4-carboxylic acid ((S)-1-cyclohexyl-ethyl)-amide], for which the melting point lay in the range of 110 to 130 °C.

As usually defined, the melting point is the temperature of the solid-liquid transition.
